# In the NIST ThermoML archive (doi:10.1016/j.jct.2015.10.002):
# Numbers after ± are expanded uncertainties.
# Assay: mn = molality of the nth substance listed, in mol/kg
# Conditions: 101.3 kPa, Liquid; for viscosity: Capillary tube (Ostwald / Ubbelohde) method; for mass density: Vibrating tube method
compound,measurement,setting,value
OC[C@@H](O)[C@@H](O)[C@H](O)[C@@H](O)CO [D-sorbitol] + O,viscosity,"293.15 K, m1 = 0.2",1.099 ± 0.045 mPa·s
same,viscosity,"293.15 K, m1 = 0.4",1.203 ± 0.049 mPa·s
same,viscosity,"293.15 K, m1 = 0.6",1.319 ± 0.054 mPa·s
same,viscosity,"293.15 K, m1 = 0.8",1.453 ± 0.059 mPa·s
same,viscosity,"293.15 K, m1 = 1",1.592 ± 0.065 mPa·s
same,mass density,"293.15 K, m1 = 0.2",1010.61 ± 1 kg/m3
same,mass density,"293.15 K, m1 = 0.4",1022.43 ± 1 kg/m3
same,mass density,"293.15 K, m1 = 0.6",1033.64 ± 1 kg/m3
same,mass density,"293.15 K, m1 = 0.8",1044.32 ± 1 kg/m3
same,mass density,"293.15 K, m1 = 1",1054.54 ± 1 kg/m3
same,viscosity,"303.15 K, m1 = 0.2",0.87 ± 0.035 mPa·s
same,viscosity,"303.15 K, m1 = 0.4",0.944 ± 0.038 mPa·s
same,viscosity,"303.15 K, m1 = 0.6",1.034 ± 0.042 mPa·s
same,viscosity,"303.15 K, m1 = 0.8",1.122 ± 0.046 mPa·s
same,viscosity,"303.15 K, m1 = 1",1.233 ± 0.05 mPa·s
same,mass density,"303.15 K, m1 = 0.2",1007.87 ± 1 kg/m3
same,mass density,"303.15 K, m1 = 0.4",1019.5 ± 1 kg/m3
same,mass density,"303.15 K, m1 = 0.6",1030.53 ± 1 kg/m3
same,mass density,"303.15 K, m1 = 0.8",1041.07 ± 1 kg/m3
same,mass density,"303.15 K, m1 = 1",1051.08 ± 1 kg/m3
same,viscosity,"313.15 K, m1 = 0.2",0.708 ± 0.029 mPa·s
same,viscosity,"313.15 K, m1 = 0.4",0.766 ± 0.031 mPa·s
same,viscosity,"313.15 K, m1 = 0.6",0.829 ± 0.034 mPa·s
same,viscosity,"313.15 K, m1 = 0.8",0.903 ± 0.037 mPa·s
same,viscosity,"313.15 K, m1 = 1",0.977 ± 0.04 mPa·s
same,mass density,"313.15 K, m1 = 0.2",1004.3 ± 1 kg/m3
same,mass density,"313.15 K, m1 = 0.4",1015.77 ± 1 kg/m3
same,mass density,"313.15 K, m1 = 0.6",1026.67 ± 1 kg/m3
same,mass density,"313.15 K, m1 = 0.8",1037.06 ± 1 kg/m3
same,mass density,"313.15 K, m1 = 1",1046.99 ± 1 kg/m3
same,viscosity,"323.15 K, m1 = 0.2",0.588 ± 0.024 mPa·s
same,viscosity,"323.15 K, m1 = 0.4",0.634 ± 0.026 mPa·s
same,viscosity,"323.15 K, m1 = 0.6",0.686 ± 0.028 mPa·s
same,viscosity,"323.15 K, m1 = 0.8",0.738 ± 0.03 mPa·s
same,viscosity,"323.15 K, m1 = 1",0.797 ± 0.032 mPa·s
same,mass density,"323.15 K, m1 = 0.2",999.96 ± 1 kg/m3
same,mass density,"323.15 K, m1 = 0.4",1011.33 ± 1 kg/m3
same,mass density,"323.15 K, m1 = 0.6",1022.12 ± 1 kg/m3
same,mass density,"323.15 K, m1 = 0.8",1032.4 ± 1 kg/m3
same,mass density,"323.15 K, m1 = 1",1042.26 ± 1 kg/m3
